Experimental findings from patent US5134142A, “Pyrazole derivatives, and pharmaceutical composition comprising the same” (Fujisawa Pharmaceutical Co., Ltd., priority 1989, dated 1992) are described below.

Assay [1] relates to adjuvant arthritis in rats. Kind of assay: Effect on adjuvant arthritis in rats (antiinflammatory activity). It is filed as in vivo, female Sprague-Dawley rats. The note with it: Rattus norvegicus, po, 552 h, orally once a day for 23 days, read-out: Inhibition of secondary lesion (uninjected paw).
Assay [2] has as its system inflammatory hyperalgesia induced by brewer's yeast in rats. Briefly: Inflammatory hyperalgesia induced by brewer's yeast in rats (analgesic activity). The format is in vivo, male Sprague Dawley rats. The note with it: oral, pain threshold 3 hours after yeast injection. As for the experimental part:
Inflammatory hyperalgesia induced by brewer's yeast in rats : (i) Test Method : Ten male Sprague Dawley rats were used per group. 0.1 ml of 5% brewer's yeast suspended in 0.5% methylcellulose was injected into the right hind paw. The pain threshold was determined 3 hours after yeast injection, by applying pressure to the foot and reading the pressure at which the rat withdrew the foot. The drugs were given orally 2 hours after yeast injection. The pain threshold in the treated animals was compared with that in the control animals.

Assay [3] deals with collagen induced arthritis in mice. Kind of assay: Effect on collagen induced arthritis in mice (anti-rheumatic activity). It is filed as in vivo, male DBA/1 mice. The following applies: 10 mg/kg, orally once a day for 3 weeks from 10 day after challenge. As for the experimental part:
Effect on collagen induced arthritis in mice : (i) Test Method : Eight male DBA/1 mice were used per group. Type II bovine collagen was solublized in 0.1M acetic acid and emulsified in complete Freund's adjuvant (CFA . Mice were primed with 0.2 mg of Type II collagen in CFA intradermally at the base of the tail. Mice were challenged after 21 day with the same procedure. From 10 day after challenge, drug was administered orally once a day for 3 weeks and mice were inspected weekly for visual signs of arthritis. An arthritis index was used to grade limb 0-3, representing joint swelling and erythema (Grade 1), visible joint disorder (Grade 2 and detectable joint ankylosis (Grade 3).

Assay [4] deals with Delayed Type Hypersensitivity (DTH) response to bovine type II collagen. Kind of assay: Effect on Delayed Type Hypersensitivity (DTH) response to bovine type II collagen. The format is in vivo, male DBA/1 mice. The following applies: oral, 24 hours after challenge, mice.
Assay [5] concerns platelet aggregation induced by collagen. Briefly: Effect on platelet aggregation induced by collagen (antithrombotic activity). The format is cell-based. The note with it: human platelet rich plasma, collagen 0.5 μg/ml, 37° C. Here is the method: Effect on platelet aggregation induced by collagen :
Platelet rich plasma (PRP) which contains 3×10^8 platelets/ml was prepared from human blood. To the 245 μl of PRP, 5 μl of drug solution* was added, and then stirred for 2 min at 37° C. To the solution 5 μl of collagen (0.5 μg/ml) was added as an aggregation inducer. Aggregation was measured by using an aggregometer (NKK HEMA-TRACER 1). Activities of inhibitors (test compounds) were expressed as IC50 values i.e. doses required to inhibit the platelet aggregation responses by 50%.
Drug solution* - - - Test compounds were dissolved in dimethylsulfoxide.

For `C[S+]([O-])c1ccc(-c2cc(C#N)nn2-c2ccc(F)cc2)cc1` (centres unmarked) [Example 24, 1-(4-fluorophenyl)-5-[4-(methylsulfinyl)phenyl]pyrazole-3-carbonitrile], the inhibition in vivo at 3.2 mg/kg in assay [1] was 80.6%. In assay [2] (10 mg/kg), the “Relative potency (Control = 1.0)” value is reported as 1.44. Moreover, the “Inhibition of arthritis index” value in assay [3] is 90.5%. The “per cent inhibition of DTH response compared with vehicle control” value turned out to be 45.9% in assay [4] (0.32 mg/kg), 66.9% in assay [4] (1.0 mg/kg) and 75.7% in assay [4] (3.2 mg/kg).
`CSc1ccc(-c2cc(C#N)nn2-c2ccc(F)cc2)cc1` [15-2), 1-(4-Fluorophenyl)-5-[4-(methylthio)phenyl]pyrazole-3-carbonitrile]: the “per cent inhibition of DTH response compared with vehicle control” value was found to be 55.4% in assay [4] (0.32 mg/kg), 70.9% in assay [4] (1.0 mg/kg) and 69.6% in assay [4] (3.2 mg/kg).
Take `CCNc1ccc(-n2nc(C#N)cc2-c2ccc(S(C)(=O)=O)cc2)cc1` [37-2), 1-[4-(Ethylamino)phenyl]-5-[4-(methylsulfonyl)phenyl]pyrazole-3-carbonitrile]: the inhibition in vivo at 3.2 mg/kg in assay [1] was determined as 81.7%.
Regarding `CS(=O)(=O)c1ccc(-c2cc(C#N)nn2-c2ccc(F)cc2)cc1` [Example 6, 1-(4-fluorophenyl)-5-[4-(methylsulfonyl)phenyl]pyrazole-3-carbonitrile], the inhibition in vivo at 10 mg/kg in assay [1] came out at 95.6%. In addition, the “Relative potency (Control = 1.0)” value in assay [2] (32 mg/kg) came out at 1.34. For the same compound, in assay [3], the “Inhibition of arthritis index” value came out at 78.6%. This compound also had an IC50 in assay [5] of 5.3 µM. Besides, the “per cent inhibition of DTH response compared with vehicle control” value is 53.4% in assay [4] (0.32 mg/kg), 61.5% in assay [4] (1.0 mg/kg) and 74.3% in assay [4] (3.2 mg/kg).
As for `C[S+]([O-])c1ccc(-c2cc(C#N)nn2-c2ccc(F)cc2F)cc1` (centres unmarked) [33-2), 1-(2,4-Difluorophenyl)-5-[4-(methylsulfinyl)phenyl]pyrazole-3-carbonitrile], the inhibition in vivo at 3.2 mg/kg in assay [1] amounted to 87.1%. In addition, the “Inhibition of arthritis index” value in assay [3] was 92.4%.
Take `CS(=O)(=O)Nc1ccc(-n2nc(C#N)cc2-c2ccc(S(C)(=O)=O)cc2)cc1` [Example 36]: in assay [1], the inhibition in vivo at 3.2 mg/kg was 84.2%.
Take `CC(C)Cc1ccc(C(C)C(=O)O)cc1` (centres unmarked) [Ibuprofen, reference compound]: in assay [1], the inhibition in vivo at 10 mg/kg was 24.7%.
For the compound `CS(=O)(=O)c1ccc(-c2ccnn2-c2ccc(F)cc2)cc1` [17-1), 1-(4-Fluorophenyl)-5-[4-(methylsulfonyl)phenyl]pyrazole], the inhibition in vivo at 3.2 mg/kg in assay [1] was determined as 80.6%.
For the compound `CNc1ccc(-n2nc(C(F)(F)F)cc2-c2ccc(S(C)(=O)=O)cc2)cc1.Cl` [45-8), 1-[4-(Methylamino)phenyl]-5-[4-(methylsulfonyl)-phenyl]-3-(trifluoromethyl)pyrazole hydrochloride], the inhibition in vivo at 3.2 mg/kg in assay [1] was determined as 80.8%. Also, the “Inhibition of arthritis index” value in assay [3] is reported as 83.5%.
With `CS(=O)(=O)c1ccc(-c2cc(C#N)nn2-c2ccc(F)cc2F)cc1` [15-6), 1-(2,4-Difluorophenyl)-5-[4-(methylsulfonyl)phenyl]pyrazole-3-carbonitrile], the inhibition in vivo at 3.2 mg/kg in assay [1] came to 94.3%. For the same compound, in assay [3], the “Inhibition of arthritis index” value stood at 98.9%.
With `CS(=O)(=O)c1ccc(-c2cc(C(F)(F)F)nn2-c2ccc(F)cc2)cc1` [11-3), 1-(4-Fluorophenyl)-5-[4-(methylsulfonyl)phenyl]-3-(trifluoromethyl)pyrazole], in assay [1], the inhibition in vivo at 10 mg/kg was 100%. Moreover, in assay [2] (32 mg/kg), the “Relative potency (Control = 1.0)” value is recorded as 1.35. Further, the “Inhibition of arthritis index” value in assay [3] was found to be 91.7%.
